How the values were obtained:
[1] = Times to onset, minimal and maximal, observed in the indexed observations. [column 'DELAI' in source]; conditions: human
[2] = Highest frequency of acute liver toxicity observed during clinical trials, expressed as a percentage. [column '% AIGUE' in source]; conditions: human
[3] = human
[4] = human; remark: listed apart in the source
[5] = human, serum
[6] = human; remark: listed apart in the source
[7] = human; remark: listed apart in the source
[8] = human; remark: listed apart in the source
[9] = human, serum; remark: listed apart in the source
[10] = Highest frequency of moderate liver toxicity observed during clinical trials, expressed as a percentage. [column '% BIOL' in source]; conditions: human
[11] = human; remark: listed apart in the source
[12] = human; remark: listed apart in the source
[13] = human; remark: listed apart in the source
[14] = human, serum, 4383 h
[15] = human; remark: listed apart in the source
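Throughout, for Hepatotoxicity (association with vascular disease): count of indexed literature references reporting vascular liver injury in humans, e.g. peliosis hepatitis, hepatic veno-occlusive disease or Budd-Chiari syndrome.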
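Throughout, for Hepatotoxicity (benign tumour): value is a count of indexed literature references citing a benign tumour confirmed by histopathology.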
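Throughout, for Hepatotoxicity (choleostasis): human cholestatic liver injury, shown by histopathology or by peak ALT or AST elevation over alkaline phosphatase ratio below 2, value counts indexed literature reports.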
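Throughout, for Hepatotoxicity (chronic liver disease): chronic liver injury confirmed by histopathology or persistently raised serum aminotransferase activity beyond 6 months, value given as the count of indexed literature references.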
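Throughout, for Hepatotoxicity (cirrhosis): value is a count of indexed literature references reporting cirrhosis confirmed by histopathology.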
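Throughout, for Hepatotoxicity (cytolytic): human cytolytic liver injury, shown by histopathology or by a ratio above 5 of peak ALT or AST elevation to alkaline phosphatase elevation, value counts indexed references.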
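Throughout, for Hepatotoxicity (granulomatous hepatitis): value is a count of indexed literature references reporting granulomatous liver disease confirmed by histopathology.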
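Throughout, for Hepatotoxicity (malignant tumour): malignant tumour confirmed by histopathology, value gives the count of indexed literature references reporting it.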
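Throughout, for Hepatotoxicity (severe hepatitis): human clinical data: severe hepatitis, meaning potentially life-threatening liver failure or clinically observed cases, the value counts how many indexed literature references report it.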
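Throughout, for Hepatotoxicity (steatosis): steatosis confirmed by histopathology, value is the count of indexed references.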

| SMILES | Hepatotoxicity (time to onset) [1] | Hepatotoxicity (acute) [2] [%] | Hepatotoxicity (benign tumour) [3] | Hepatotoxicity (cirrhosis) [4] | Hepatotoxicity (moderate) [5] | Hepatotoxicity (association with vascular disease) [6] | Hepatotoxicity (malignant tumour) [7] | Hepatotoxicity (severe hepatitis) [8] | Hepatotoxicity (acute) [9] | Hepatotoxicity (moderate) [10] [%] | Hepatotoxicity (steatosis) [11] | Hepatotoxicity (choleostasis) [12] | Hepatotoxicity (cytolytic) [13] | Hepatotoxicity (chronic liver disease) [14] | Hepatotoxicity (granulomatous hepatitis) [15] | Hepatotoxicity (acute) ([2]; Liver) [%] | Hepatotoxicity (severe hepatitis) ([8]; Liver) | Hepatotoxicity (moderate) ([10]; Liver) [%] |
| --- | --- | --- | --- | --- | --- | --- | --- | --- | --- | --- | --- | --- | --- | --- | --- | --- | --- | --- |
| CCOC(=O)Nc1ccc2c(c1)N(C(=O)CCN1CCOCC1)c1ccccc1S2 [MORICIZINE] | 6 days | 0 | 0 | 0 | 4 | 0 | 0 | 0 | 0 | 1.2 | 0 | 0 | 0 | 0 | 0 |  |  |  |
| O=C(NCN1CCOCC1)c1cnccn1 [MORINAMIDE] | 4 months | 0.5 | 0 | 0 | 2 | 0 | 0 | 1 | 2 | 1.8 | 0 | 0 | 2 | 0 | 0 |  |  |  |
| COc1nc(C)nc(Cl)c1N=C1NCCN1 [MOXONIDINE] | 9 months |  | 0 | 0 | 0 | 0 | 0 |  | 1 |  | 0 | 1 | 1 | 0 | 0 | 0 | 1 | 0 |
| COc1c(C)c2c(c(O)c1C/C=C(\C)CCC(=O)OCCN1CCOCC1)C(=O)OC2 [MYCOPHENOLATE MOFETIL] | 2 weeks | 0 | 0 | 0 | 3 | 0 | 0 | 0 | 1 | 33.3 | 0 | 0 | 1 | 0 | 0 |  |  |  |

Reference: ChEMBL document CHEMBL3137667, “[Drug-induced liver injury; fourteenth updated edition of the bibliographic database of liver injuries and related drugs]” (Gastroenterol Clin Biol, 2004)
